Source: patent US20220402917A1, “COMPOUND AS SMALL MOLECULE INHIBITOR PD-1/PD-L1 AND APPLICATION THEREOF” (MEDSHINE DISCOVERY INC., priority 2019, published 2022)

Columns and labels:
[1] = target: T1, PD-L1 in MDA-MR-231 cells (Homo sapiens, UniProt Q9NZQ7); test: Effect on expression level of PD-L1 in MDA-MR-231 cells (FACS); format: cell-based; conditions: 24 hours incubation, FACS detection of cell surface PD-L1
T1 construct: endogenous in cells; host or cells: MDA-MB-231
Protocol: Experimental Example 2: Using MDA-MR-231 Cells to Detect the Effect of Compounds on the Expression Level of PD-L1
The use of a triple-negative breast cancer cell line (MDA-MB-231) is an indirect method to assess PD-L1 endocytosis. PD-L1 molecules on the cell surface can be degraded by lysosomal and proteasome pathways, and small molecule inhibitors are added to induce PD-L1 endocytosis. After co-incubating small molecules with MDA-MB-231 cells for 24 hours, flow cytometry (Fluorescence-activated Cell Sorting, FACS) is used to detect the content of PD-L1 on the cell surface, which can indirectly reflect the effect of small molecule-induced PD-L1 endocytosis. Flow cytometry (FACS) is used to detect the effect of the compounds of the present disclosure on the expression level of PD-L1 in MDA-MR-231 cells.
Phosphate buffer (DPBS), 1640 medium, penicillin-streptomycin, fetal bovine serum, non-essential amino acids, 2-hydroxy-1-ethanethiol (2-ME), human interferon γ, LIVE/DEAD staining solution, staining buffer, fixation buffer, 0.25% trypsin, EDTA, anti-human PD-L1, anti-human PD-L1 isotype.
1640 complete medium preparation: 50 mL of fetal bovine serum, 5 mL of non-essential amino acids, 5 mL of penicillin-streptomycin and 0.5 mL of 2-hydroxy-1-ethanethiol were added to 439.5 mL of 1640 medium, and evenly mixed.
10 mM EDTA preparation: 1 mL of 0.5M EDTA was added to 49 mL of DPBS, and evenly mixed.
1) MDA-MB-231 cell counting and plating: The culture flask was taken out, the medium was removed and the culture flask was rinsed once with DPBS. After the culture flask was rinsed, 3 mL of 0.25% trypsin was added to the culture flask and the culture flask was placed in a 37° C. incubator for 1.5 min. The culture flask was taken out, 9 mL of 1640 complete medium was added to stop the reaction, the cells was transferred to a 50 mL centrifuge tube, and centrifuged at 1000 rpm for 5 min at 37° C. An appropriate volume of medium was added to re-suspend the cells according to the number of cells, and the number of cells was counted with a cell counter. The cell concentration was adjusted to 5×10^5 cells/mL with medium. Planking: A volume of 200 μL of cell suspension was added to each well of a 96-well plate, ensure that the number of cells in each well was 1×10^5. The cells were incubated overnight in an incubator. 2) Drug incubation: 100-fold dilution of compounds were prepared, and the drug was subjected to a 5-fold gradient dilution. 2 μL of each 100-fold dilution of compounds were added to each well. The cells were incubated in an incubator at 37° C. for 24 hours. 3) PD-L1 cell staining and FACS detection: the culture plate was taken out and the supernatant medium was discarded. The cells were washed once with 200 μL 1×PBS. 100 μL of EDTA (final concentration of 10 mM) was added to the cell suspension, and the cell suspension was treated at 37° C. for 10 min. Then after the cell suspension was centrifuged at 1500 rpm for 5 min, the cell suspension was washed once with 200 μL of staining solution. Staining: anti-human PD-L1 (2 μL per well) and LIVE/DEAD staining solution (1:1000) were diluted in staining solution, 50 μL of the staining solution was added to each well, and the staining was conducted at 4° C. for 30 min. Then the solution was washed twice with 200 μL of staining solution. Fixation: 100 μL of fixing solution was added to each well, the fixation was conducted at 4° C. for 15 min. The solution was then washed twice with 200 μL of staining solution, and 150 μL of solution was added to re-suspend the cells, followed by FACS detection.
Table 2 provides the effects of the compounds of the examples of the present disclosure on the expression level of PD-L1 in MDA-MR-231 cells.

PD1/PD-L1 = PD1/PD-L1 (Homo sapiens, UniProt Q9NZQ7); test: NFAT activity test (TCR Activitor/PD-L1 CHO cells with PD-1/NFAT Reporter-Jurkat cells); format: cell-based; design: host or cells: TCR Activitor/PD-L1 CHO cells; PD-1/NFAT Reporter-Jurkat cells; conditions: TCR Activitor/PD-L1 CHO cells + PD-1/NFAT Reporter-Jurkat cells, 5 hours, luciferase; for IC50: read-out: IC50, inhibitory activity on PD1/PD-L1 binding (NFAT activity test)
Chain of PD1/PD-L1 (Q9NZQ7 19-290): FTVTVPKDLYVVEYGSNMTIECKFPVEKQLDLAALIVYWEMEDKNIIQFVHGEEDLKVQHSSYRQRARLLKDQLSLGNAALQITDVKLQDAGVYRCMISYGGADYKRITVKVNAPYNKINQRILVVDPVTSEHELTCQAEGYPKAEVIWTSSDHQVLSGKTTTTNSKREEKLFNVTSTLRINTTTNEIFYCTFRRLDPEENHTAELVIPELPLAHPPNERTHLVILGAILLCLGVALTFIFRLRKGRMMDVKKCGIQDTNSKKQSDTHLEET
Source text: Experimental Example 3: NFAT Activity Test
The engineered T cell expresses PD-1 molecules and T cell receptor (TCR) on the surface, which can activate the NFAT signaling pathway of T cells after co-culturing with engineered antigen presenting cells (APCs). Expression of PD-L1 molecules on APCs can effectively attenuate the NFAT signaling pathway in T cells. PD-L1 inhibitors can be used effectively block the PD-1/PD-L1 regulatory mechanism, thereby reversing the weakened NFAT signaling pathway. After being pretreated with APC, the small molecule is co-cultured with T cells, then the expression of luciferase was detected to indirectly reflect the activation of the NFAT pathway in T cells.
The PD1/PD-L1 NFAT detection kit was purchased from BPS Biosciences. Birght-Glo reagent was purchased from Promega. Nivo multi-label analyzer (PerkinElmer).
The TCR Activitor/PD-L1 CHO cells with a growth confluence of 80% were plated into the plate at 35,000 cells per well and placed in a 37° C. cell culture incubator overnight; the compounds to be tested were diluted 5-fold to the 8th concentration, from 20 μM to 0.25 nM, and the DMSO concentration was 2%, a double-well experiment was set up. The TCR Activitor/PD-L1 CHO cell supernatant was discarded, 50 μl of compound working solution was added to each well, incubated at 37° C. for 30 minutes; after the incubation was completed, 50 μL of PD-1/NFAT Reporter-Jurkat cell suspension with a concentration of 4*10^5 cells/mL was added to each well, incubated at 37° C. for 5 hours. After the incubation was completed, 100 μL Bright-Glo was added to each well, and after mixing, the chemiluminescence signal was detected by a Nivo multi-label analyzer.
Using the equation (sample−Min)/(Max−Min)×100% to convert the raw data into inhibition rate, and the IC50 value can be obtained by curve fitting with four parameters (obtained from log(inhibitor) vs. response—Variable slope mode in GraphPad Prism). Table 3 provides the inhibitory activity of the compounds of the examples of the present disclosure on PD1/PD-L1 binding.

T1 sequence (Q9NZQ7 19-290): as above

SMILES | IC50 [1] | Maximum effect (induction fold) (PD1/PD-L1) | IC50 (PD1/PD-L1)
COc1nc(-c2cccc(-c3cccc(NC(=O)c4cc(C)c5c(n4)CN(CCO)CC5)c3Cl)c2Cl)ccc1CN1CC(O)C1 [Compound 37] | 28.1 nM | – | –
COc1nc(-c2cccc(-c3cccc(NC(=O)c4nc(C)c5c(n4)CN(CCO)CC5)c3Cl)c2Cl)cnc1CN1CC(O)C1 [Compound 36] | 95.8 nM | 3.20 induction fold | 46.5 nM
COc1nc(-c2cccc(-c3cccc(NC(=O)c4cc(C)c5c(n4)CN(CCO)CC5)c3Cl)c2Cl)cnc1CNCCO [Compound 31] | 8.58 nM | 4.12 induction fold | 22.6 nM
COc1nc(-c2cccc(-c3cccc(NC(=O)c4cc(C)c5c(n4)CN(CC(O)CO)CC5)c3Cl)c2Cl)cnc1CN1CC(O)C1 (stereo not drawn) [Compound 30] | 10.5 nM | 4.80 induction fold | 26.6 nM
COc1nc(-c2cccc(-c3cccc(NC(=O)c4cc(C)c5c(n4)CN(CCC(C)O)CC5)c3Cl)c2Cl)cnc1CN1CC(O)C1 (stereo not drawn) [Compound 49] | 33.8 nM | 5.30 induction fold | 175 nM
COc1nc(-c2cccc(-c3cccc(NC(=O)c4cc(C)c5c(n4)CN(CC(=O)O)CC5)c3Cl)c2C)cnc1CN1CC(O)C1 [Compound 22] | 79.7 nM | 3.79 induction fold | 58.8 nM
COc1nc(-c2cccc(-c3cccc(NC(=O)c4cc(C#N)c5c(n4)CN(CCO)CC5)c3Cl)c2Cl)cnc1CN1CCC(CO)C1 (stereo not drawn) [Compound 61] | – | 4.99 induction fold | 53.8 nM
COc1nc(-c2cccc(-c3cccc(NC(=O)c4cc(C)c5c(n4)CCN(CCO)C5)c3Cl)c2Cl)cnc1CN1CC(O)C1 [Compound 43] | – | 5.16 induction fold | 242 nM
COc1nc(-c2cccc(-c3cccc(NC(=O)c4cc(C)c5c(n4)CN(CCO)CC5)c3Cl)c2Cl)cnc1CN[C@H]1C[C@](C)(O)C1 [Compound 34] | 21.9 nM | 4.09 induction fold | 44.7 nM
COc1nc(-c2cccc(-c3cccc(NC(=O)c4cc(C)c5c(n4)CN(C(C)CO)CC5)c3Cl)c2Cl)cnc1CN1CC(O)C1 (stereo not drawn) [Compound 27] | 14.6 nM | 3.48 induction fold | 28.9 nM
COc1nc(-c2cccc(-c3cccc(NC(=O)c4cc(C)c5c(n4)CN(CC(C)O)CC5)c3Cl)c2Cl)cnc1CN1CC(O)C1 (stereo not drawn) [Compound 44] | – | 5.15 induction fold | 207 nM
COc1nc(-c2cccc(-c3cccc(NC(=O)c4cc(C)c5c(n4)CN(CC4(CO)CC4)CC5)c3Cl)c2Cl)cnc1CN1CC(O)C1 [Compound 29] | – | 3.52 induction fold | 52 nM
COc1cc(C(=O)Nc2cccc(-c3cccc(-c4cnc(CN5CC(CO)C5)c(OC)n4)c3Cl)c2Cl)nc2c1CCN(CCO)C2 [Compound 55] | – | 4.56 induction fold | 25.2 nM
COc1nc(-c2cccc(-c3cccc(NC(=O)c4cc(C#N)c5c(n4)CN(CCO)CC5)c3Cl)c2Cl)cnc1CN1CC2(CC(O)C2)C1 [Compound 57] | – | 4.42 induction fold | 40.7 nM
COc1nc(-c2cccc(-c3cccc(NC(=O)c4cc(OC(F)F)c5c(n4)CN(CCO)CC5)c3Cl)c2Cl)cnc1CN1CC2(CC(O)C2)C1 [Compound 62] | – | 4.37 induction fold | 13.5 nM
COc1cc(C(=O)Nc2cccc(-c3cccc(-c4cnc(CN5CCC(CO)C5)c(OC)n4)c3Cl)c2Cl)nc2c1CCN(CCO)C2 (stereo not drawn) [Compound 56] | – | 2.75 induction fold | 10.1 nM
COc1nc(-c2cccc(-c3cccc(NC(=O)c4cc(C#N)c5c(n4)CN(CCO)CC5)c3Cl)c2Cl)cnc1CNCCO [Compound 59] | – | 5.35 induction fold | 166 nM
COc1nc(-c2cccc(-c3cccc(NC(=O)c4cc(C#N)c5c(n4)CN(CCO)CC5)c3Cl)c2Cl)cnc1CN1CC(C)(O)C1 [Compound 58] | – | 5.01 induction fold | 104 nM
COc1cc(C(=O)Nc2cccc(-c3cccc(-c4cnc(CN5CC6(CC(O)C6)C5)c(OC)n4)c3Cl)c2Cl)nc2c1CCN(CCO)C2 [Compound 53] | – | 3.81 induction fold | 13.7 nM
COc1nc(-c2cccc(-c3cccc(NC(=O)c4cc(C#N)c5c(n4)CN(CCO)CC5)c3Cl)c2Cl)cnc1CN1CC(CO)C1 [Compound 60] | – | 4.95 induction fold | 55.5 nM
COc1nc(-c2cccc(-c3cccc(NC(=O)c4cc(C)c5c(n4)CN(CC(C)(C)O)CC5)c3Cl)c2Cl)cnc1CN1CC(O)C1 [Compound 28] | – | 3.63 induction fold | 34.8 nM
COc1cc(C(=O)Nc2cccc(-c3cccc(-c4cnc(CNCCO)c(OC)n4)c3Cl)c2Cl)nc2c1CCN(CCO)C2 [Compound 54] | – | 3.91 induction fold | 38.5 nM
Cc1cc(C(=O)Nc2cccc(-c3cccc(NC(=O)c4ccc(CNCCO)cn4)c3C)c2Cl)nc2c1CCN(C1CCNCC1)C2 [Compound 14] | 96.9 nM | – | –
COc1nc(-c2cccc(-c3cccc(NC(=O)c4cc(OCC#N)c5c(n4)CN(CCO)CC5)c3Cl)c2Cl)cnc1CN1CC(O)C1 [Compound 52] | – | 4.74 induction fold | 51.5 nM
COc1nc(-c2cccc(-c3cccc(NC(=O)c4cc(OC(F)F)c5c(n4)CN(CCO)CC5)c3Cl)c2Cl)cnc1CN1CCC(CO)C1 (stereo not drawn) [Compound 64] | – | 3.98 induction fold | 16.5 nM
COc1nc(-c2cccc(-c3cccc(NC(=O)c4cc(OC(F)F)c5c(n4)CN(CCO)CC5)c3Cl)c2Cl)cnc1CN1CC(C)(O)C1 [Compound 63] | – | 6.40 induction fold | 142 nM
